In paper PMC4279419, “Angiostatic, tumor inflammatory and anti-tumor effects of CXCL4^47–70 and CXCL4L1^47–70 in an EGF-dependent breast cancer model” (Oncotarget, 2014):
Read-outs that look alike come from different tables or passages of the source. Where no end group is shown, it is not given here.

How the values were obtained:
CHO/CXCR3B cells = test: CXCR3B binding (flow cytometry); conditions: NH2-terminally biotinylated peptides, 3 to 3000 ng/ml, data not shown
Text: We further tried to reveal the mode of action of CXCL4^47–70 and CXCL4L1^47–70. First, we excluded that either peptide still binds/activates one of the CXCR3 isoforms, the receptors for intact CXCL4 and CXCL4L1.

[1] = SPR (BIAcore) binding to immobilized heparin; conditions: for Dissociation rate (Koff): BIAcore X100, HBS-EP+ pH 7.4; for Association rate (Kon): BIAcore X100, HBS-EP+ pH 7.4, 2 min injection, 30 μl/min
Procedure: Next, we exploited surface plasmon resonance (SPR) analysis to assess the capacity of CXCL4^47–70 and CXCL4L1^47–70 to bind heparin immobilized to a BIAcore sensorchip, a model that mimics the binding of proteins to heparan sulphate proteoglycans associated to the cell surface. When increasing concentrations of the two peptides were injected onto the heparin surface, sensorgram overlays (not shown) allowed the calculation of association (Kon) and dissociation (Koff) rates and of Kd (as Koff/Kon ratio, Table 1). Also, equilibrium binding data were used to generate the saturation curves shown in Figure 8A and used to calculate a Kd value independently from kinetic parameters (Table 1).
SPR measurements were performed on a BIAcore X100 instrument (GE-Healthcare, Milwaukee, WI). Research-grade SA sensorchip was used. For the study of the interaction of heparin with CXCL4^47–70 and CXCL4L1^47–70, heparin was immobilized to a BIAcore sensorchip. Briefly, 13600 Da unfractionated heparin was biotinylated at its reducing end and immobilized onto the SA streptavidin-coated sensorchip. These experimental conditions allowed the immobilization of 200 resonance units (RU) equal to 14.7 fmol/mm^2 of heparin. A sensorchip coated with streptavidin alone was used as a reference and for blank subtraction. The peptides were dissolved in 10 mM HEPES buffer pH 7.4 containing 150 mM NaCl, 3 mM EDTA, 0.05% surfactant P20 (HBS-EP+) and injected at different concentrations over the heparin or streptavidin surfaces for 2 min at a flow rate of 30 μl/min and then washed until dissociation was observed. After each run, the sensorchip was regenerated by injection of HBS-EP+ containing 2.0 M NaCl.

[2] = tested on: human dermal lymphatic microvascular endothelial cells (HLEC); test: HLEC MTT proliferation assay; format: cell-based; conditions: control PI=1, 3 to 4 days, MTT, mean ± s.e.m., n=4
Procedure: First, HMVEC and HLEC were seeded at 5 × 10^3 cells/well in EBM-2 + 1% FCS in a 96-well plate, whereas MDA-MB-231 were starved of growth factors overnight by replacing their growth medium with DMEM (serum-free) prior to seeding the tumor cells at 15 × 10^2 cells/well in DMEM + 1% FCS. As for the rest of the assay, the same protocol applies to all cells. Once adherent, cells were incubated with different concentrations of the peptides CXCL4^47–70 and CXCL4L1^47–70 as single stimuli or in combination with recombinant human EGF (3 ng/ml; R&D Systems, Minneapolis, MN) at 37°C/5% CO2. All conditions were tested in triplicate or quadruplicate. After 3 to 4 days, stimulation medium was removed and a sterile MTT solution was added [0.04 g/100 ml thiazolyl blue (Sigma-Aldrich, St. Louis, MO) in 20% PBS/80% RPMI without phenol red (Lonza)] for 3 to 4 hours. The formed formasan crystals were dissolved by replacing the MTT solution with acidic propanol (0.04 M HCl, 0.1% (v/v) Nondet P-40 in absolute isopropanol) and shaking the plate, shielded from light, for 10 minutes. Optical density (OD) was determined at 570 nm and 630 nm. The obtained ODs were processed to proliferation indexes (PI), expressed relative to appropriate buffer controls, i.e. ΔOD570–630X over ΔOD570–630CO.

[3] = tested on: human acute monocytic leukemia cells (THP-1); test: Transendothelial multiscreen chemotaxis assay; format: cell-based; conditions: HMVEC monolayer, n=3 to 4; for effect on CCL5-induced transendothelial migration: peptide 1000 to 5000 ng/ml + CCL5 20 ng/ml, 3 to 5 hours, 37°C, ATPlite
Procedure: Monocyte chemotaxis assays were performed on 5 μm hydrophilic polycarbonate multiscreen-MIC plates (Millipore) using the human acute monocytic leukemia cells (THP-1). To promote efficient synergy between CCL5 on one hand and CXCL4, CXCL4^47–70 or CXCL4L1^47–70 on the other hand, the upper compartment of these plates was coated with a HMVEC monolayer. HMVEC were seeded on a 0.1% gelatin layer 24 hours prior to the chemotaxis assay. The following day, dilutions of recombinant human CCL5 (PeproTech, Rocky Hill, CT), natural human CXCL4 (isolated from stimulated platelets as previously described), recombinant human CXCL4L1 (isolated from baculovirus-infected Sf9 cells as previously described), synthetic CXCL4^47–70, synthetic CXCL4L1^47–70 (both produced as described above), or combinations thereof were added to the lower compartment of the plate, in a volume of 150 μl. After removal of the HMVEC medium, 0.35 × 10^6 THP-1 cells were added to the upper wells, resuspended in phenol red-free RPMI + 0.1 g/100 ml BSA (endotoxin-free BSA; Sigma CatN° A8806) after centrifugation of the cells at 200g for 10 min. Plates were incubated at 37°C for 3 to 5 hours before quantifying the amount of cells that migrated towards the chemokine concentrations. For that purpose, we used the ATPlite kit (PerkinElmer, Waltham, MA) allowing quantitative luminescent detection of ATP, which is representative of THP-1 cell counts in the lower wells. This reaction was performed in a view white 96-well plate (PerkinElmer). A chemotactic index (CI) was calculated, defined as the ratio of luminescence after chemokine treatment and luminescence after control treatment.

[4] = BIAcore X100, HBS-EP+ pH 7.4, Scatchard plot analysis of equilibrium binding data, read-out: Kd at equilibrium
[5] = BIAcore X100, HBS-EP+ pH 7.4, from Koff/Kon ratio, read-out: Kd (Koff/Kon)
[6] = BIAcore X100, kinetic and equilibrium values taken together, read-out: Kd (range over both methods)
[7] = peptide 0.3 μg/ml, p=0.030 (CXCL4^47–70), p=0.312 (CXCL4L1^47–70)

Dissociation rate (Koff) [1] [s⁻¹]	Association rate (Kon) [1] [M⁻¹ s⁻¹]	Kd [1, 4] [nM]	Kd [1, 5] [nM]	Kd [1, 6] [nM]	Substance	specific binding to CHO/CXCR3B (CHO/CXCR3B cells)	Proliferation index (PI), baseline [2, 7]	Proliferation index (PI), baseline ([2]; peptide 1 μg/ml, p=0.030)	Proliferation index (PI), baseline ([2]; peptide 3 μg/ml, p=0.030)	effect on CCL5-induced transendothelial migration [3]	stimulation of monocytic cell chemotaxis compared to CXCL4L1^47–70 ([3]; peptide 1000 to 5000 ng/ml with CCL5 20 ng/ml)
0.053	52000	1200	1000	1000 to 1200	CXCL4L1^47–70: synthetic human carboxy-terminal peptide restricted to the last 24 amino acids of CXCL4L1, Fmoc chemistry	could not detect specific binding	0.90 ± 0.05	0.82 ± 0.05	0.66 ± 0.04	enhanced transendothelial migration of monocytic cells	
0.011	670000	72	16	16 to 72	CXCL4^47–70: synthetic human carboxy-terminal peptide restricted to the last 24 amino acids of CXCL4, Fmoc chemistry (NGRKICLDLQAPLYKKIIKKLLES; not fully specified (N-terminus))	could not detect specific binding	0.70 ± 0.06	0.69 ± 0.06	0.37 ± 0.04	enhanced transendothelial migration of monocytic cells	more efficiently stimulated monocytic cell chemotaxis compared to CXCL4L1^47–70
